Legend:
[1] = excipient compatibility study; format: physicochemical
From the text: In some embodiments, the diluent is a sugar or sugar-containing, except mannitol. For example, the diluent may be lactose, dextrin, glucose, sucrose, sorbitol. In some embodiments, the diluent is microcrystalline cellulose.
In some embodiments, the lubricant/glidant is glyceryl behenate.

[2] = oral bioavailability in several animal species; details: in vivo, read-out: observed oral bioavailability
[3] = cited from earlier work
β-catenin reporter = β-catenin reporter assay, rodent cells (Bunyard 2019); read-out: in vitro IC50; cited from earlier work
CYP3A4 = experiment: Example 1: 4-β-hydroxy-cholesterol levels in blood (CYP3A4 activity); format: in vivo, human; details: healthy subjects
From the text: Change from baseline in 4-β-hydroxy-cholesterol levels in blood.
Plasma 4-β-hydroxy-cholesterol levels at baseline and the last day of dosing were statistically analyzed using a linear mixed model analysis of covariance with treatment as a fixed effect and the baseline concentration of 4-β-hydroxy-cholesterol as covariate.

healthy subjects = experiment: Example 1 Part 1 (SAD): safety in healthy subjects; format: in vivo, human
Method: Part 1 comprises a Screening Period of a maximum of 6 weeks. This is followed by a Treatment Period during which subjects are resident at the Clinical Unit from 1 day before investigational medicinal product (IMP) administration (Day −1) until at least 72 hours after IMP administration (Day 4). Subjects receive a single oral dose of AZD5055 or placebo on Day 1. This is followed by a Follow-up Visit within 6±1 day after the IMP dose.
The study was conducted in healthy male and healthy female subjects of non-childbearing potential with suitable veins for cannulation or repeated venipuncture. […] Also, the subjects were aged 18 to 55 years inclusive for men and women in Part 1 and only men in Part 2. For female subjects in Part 2, the age range was 18 to 49 years inclusive.
In Part 1 of the study, 3 dose levels of AZD5055 were investigated in 3 cohorts. Each cohort included 8 subjects. Within each cohort, 6 subjects were randomized to receive AZD5055, and 2 subjects were randomized to receive placebo. In Part 2 of the study, 3 dose levels of AZD5055 were investigated in 3 cohorts. In each cohort, 9 subjects were randomized to receive AZD5055, and 3 subjects were randomized to receive placebo.
Safety endpoints included adverse events; vital signs (supine blood pressure, pulse, respiratory rate, and body temperature); 12-lead ECG, 12-lead dECG, telemetry, physical examinations, clinical laboratory assessments (hematology, clinical chemistry [including serum creatinine and creatine phosphokinase], urinalysis [including protein and albumin creatinine ratios], and cardiac biomarkers [including cardiac Troponin T (cTNT), cardiac Troponin I; (cTNI), and B type natriuretic peptide]), and peripheral oxygen saturation (SpO2).
All safety data (scheduled and unscheduled) were presented in the data listings. Continuous variables were summarized using descriptive statistics (n, mean, standard deviation, min, median, max) by treatment. Categorical variables were summarized in frequency tables (frequency and proportion) by treatment (both Parts 1 and 2). The analysis of the safety variables was based on the safety analysis set. Adverse events were summarized by System Organ Class (SOC) and Preferred Term (PT) using Medical Dictionary for Regulatory Activities vocabulary. Furthermore, listings of serious adverse events (SAEs) and adverse events leading to the discontinuation of IMP (DAEs) were made and the number of subjects who had any adverse events (AEs), SAEs, DAEs and AEs with severe intensity were summarized. Adverse events that occur before dosing were reported separately. Tabulations and listings of data for ECG, vital signs, AEs, and clinical laboratory tests, measurements were presented.

healthy participants = experiment: Example 2: safety in healthy participants; format: in vivo, human
Method: The study comprises a screening period of maximum 28 days, and five periods during which subjects will participate from Day −1 of Period 1 to 72 hours after the AZD5055 dose in Period 5.
Period 1: On Day 1, the subjects will receive either 5 mg AZD5055 as a 20-minute IV infusion (Treatment A) in an overnight fasted state or AZD5055 20 mg as oral suspension (Treatment B) in an overnight fasted state.
Period 2: On Day 1 (Study Day 4), the subjects will receive 20 mg AZD5055 film-coated tablet (Treatment C) in an overnight fasted state.
Period 3: On Day 1 (Study Day 8) the subjects will receive a standardized high-fat breakfast 30 minutes before 20 mg AZD5055 administered as film-coated tablet (Treatment D).
Period 4: On Study Day 10, three days prior to Day 1, 20 mg rabeprazole will be administered twice daily. On Day 1 (Study Day 13), 20 mg AZD5055 film-coated tablet will be administered together with rabeprazole and rabeprazole dosing will continue twice daily (Treatment E).
Period 5: On Day 1 (Study Day 17) the participants will receive a low-fat breakfast 30 minutes before 20 mg AZD5055 film-coated tablet administered together with 20 mg rabeprazole.
Rabeprazole will continue twice daily, the last dose is on the evening of Study Day 18 (Treatment F).
Safety Variables—Safety endpoints included adverse events (AEs), clinical laboratory assessments (hematology, clinical chemistry, urinalysis, and urinary albumin:creatinine ratios), vital signs and peripheral oxygen saturation (SpO2), standard 12-lead electrocardiogram, (ECG), telemetry, and physical examinations.
All safety data (scheduled and unscheduled) were presented in the data listings. Continuous variables were summarized using descriptive statistics (n, mean, SD, min, median, max) by treatment. Categorical variables were summarized in frequency tables (frequency and proportion) by treatment/dose group. The analysis of the safety variables was based on the safety analysis set.

[4] = Part 1, across all AZD5055 doses

Question: For Cc1cc(-c2nccc3c2ccn3CC(=O)Nc2ccc(-c3cnccn3)cn2)ccn1 [AZD5055, 2-[4-(2-methyl-4-pyridyl)pyrrolo[3,2-c]pyridin-1-yl]-N-(5-pyrazin-2-yl-2-pyridyl)acetamide], which “degradation products with silicon dioxide and magnesium stearate” value ([1]; glidant and lubricant respectively) is on record?
Answer: Its value is “additional amounts of degradation products were identified”.

Question: What about the compatibility with mannitol ([1]; mannitol as diluent) of the same compound?
Answer: The compatibility with mannitol was “not compatible”.

Question: And the “degradation products with mannitol” value ([1]; mannitol as diluent)?
Answer: The value was “additional amounts of degradation products were identified”.

Question: What about the “compatibility with silicon dioxide and magnesium stearate” value ([1]; silicon dioxide as glidant, magnesium stearate as lubricant) of the same compound?
Answer: Its value is “not compatible”.

Question: What about the bioavailability [2] of the same compound?
Answer: Its bioavailability is 40 to 60%.

Question: What about the solubility [3] of the same compound?
Answer: Its solubility is “pH dependent”.

Question: What about the IC50 (β-catenin reporter) of the same compound?
Answer: Its IC50 is 0.64 nM.

Question: And the “effect on 4-β-hydroxy-cholesterol” value (CYP3A4; 14 days of once daily dosing)?
Answer: Its value is “no effect on 4-β-hydroxy-cholesterol”.

Question: And the “effect on CYP3A4 activity” value (CYP3A4; inferred from 4-β-hydroxy-cholesterol)?
Answer: Its value is “no significant effect on CYP3A4 activity”.

Question: What about the “AEs possibly related to AZD5055” value (healthy subjects; Part 1) of the same compound?
Answer: The value was “dizziness, ventricular tachycardia, wheezing, upper abdominal pain, vomiting, and nausea”.

Question: And the “clinical laboratory results, vital signs, physical examinations, ECGs” value (healthy subjects; Part 1)?
Answer: The value was “No clinically relevant trends”.

Question: What about the “trends for AEs by SOC or PT” value (healthy subjects; Part 1) of the same compound?
Answer: The value was “no notable trends”.

Question: And the “subjects with at least one AE” value (healthy subjects; [4])?
Answer: The value was 4 subjects.

Question: And the “subjects with at least one AE possibly related to AZD5055” value (healthy subjects; [4])?
Answer: Its value is 3 subjects.

Question: What about the “subjects with at least one AE possibly related to AZD5055, percent” value (healthy subjects; [4]) of the same compound?
Answer: Its value is 16.7%.

Question: And the “subjects with at least one AE, percent” value (healthy subjects; [4])?
Answer: The value was 22.2%.

Question: What about the AE intensity (healthy subjects; Part 1, all AEs) of the same compound?
Answer: The AE intensity was “Grade 1 (mild)”.

Question: What about the AE outcome (healthy subjects; Part 1, all AEs, by end of study) of the same compound?
Answer: The AE outcome was “recovered/resolved by the end of the study”.

Question: What about the “SAEs, deaths, AEs leading to discontinuation or withdrawal” value (healthy subjects; Part 1, all doses) of the same compound?
Answer: Its value is “no SAEs, deaths, or AEs leading to discontinuation of AZD5055 or withdrawal from the study”.

Question: And the tolerability (healthy subjects; single oral suspension dose 7, 20 and 40 mg, n=6 per dose level)?
Answer: Its tolerability is “well-tolerated”.

Question: And the “participants with SAE (transaminases increased), possibly related” value (healthy participants; Period 3 (tablet, high-fat fed))?
Answer: The value was “One”.

Question: What about the “AEs leading to discontinuation, events” value (healthy participants; after dosing in Period 3) of the same compound?
Answer: Its value is 2 events.

Question: What about the “participants with AE leading to discontinuation” value (healthy participants; after dosing in Period 3, transaminases increased and non-cardiac chest pain) of the same compound?
Answer: Its value is “Two”.

Question: And the “participants with at least 1 AE of Grade 1 intensity” value (healthy participants; in total)?
Answer: Its value is 8 participants.

Question: And the “participants with at least 1 AE of Grade 2 intensity” value (healthy participants; in total)?
Answer: The value was 4 participants.

Question: And the “AEs Grade 3 or higher” value (healthy participants; in vivo)?
Answer: Its value is “No AEs Grade 3 or higher”.

Question: What about the deaths (healthy participants; in vivo) of the same compound?
Answer: Its deaths is “no deaths”.

Question: And the “laboratory parameters, vital signs, ECGs, physical examination” value (healthy participants; in vivo)?
Answer: The value was “No clinically relevant trends”.

Question: And the “AEs possibly related to AZD5055, events” value (healthy participants; overall)?
Answer: Its value is 9 events.

Question: And the “any AE, events” value (healthy participants; overall)?
Answer: Its value is 20 events.

Question: And the “participants with any AE” value (healthy participants; overall)?
Answer: Its value is 11 participants.

Question: What about the “participants with any AE possibly related to AZD5055” value (healthy participants; overall) of the same compound?
Answer: Its value is “Five”.

Question: And the tolerability (healthy participants; single oral and IV doses)?
Answer: Its tolerability is “generally well tolerated”.
